In experiment [1] the test system is opossum kidney cells. Description: Binding to opossum kidney cells. Particulars: FIG. 3. As for the experimental part:
(§1) The recombinant peptide produced as described in Example 1 above was tested for it binding to two cells types.

Experiment [2] has as its system UMR rat osteosarcoma cell line. Description: Binding to UMR rat osteosarcoma cell line. Particulars: FIG. 4. As for the experimental part: as §1
Experiment [3] deals with opossum kidney cells. Type of experiment: cell-based. An excerpt: (§2) Therefore, the recombinant peptide had PTH biological activity which is largely indistinguishable from that of a known active fragment.
In experiment [4] the test system is UMR cells. Description: Cyclic AMP response of UMR tumor cells. Type of experiment: cell-based, rat. Particulars: FIG. 6, read-out: EC50 of cyclic AMP stimulation.
Description: as §2

The target of experiment [5] is T1, PTH receptors (Homo sapiens, UniProt Q03431).
T1 sequence (Q03431 27-593): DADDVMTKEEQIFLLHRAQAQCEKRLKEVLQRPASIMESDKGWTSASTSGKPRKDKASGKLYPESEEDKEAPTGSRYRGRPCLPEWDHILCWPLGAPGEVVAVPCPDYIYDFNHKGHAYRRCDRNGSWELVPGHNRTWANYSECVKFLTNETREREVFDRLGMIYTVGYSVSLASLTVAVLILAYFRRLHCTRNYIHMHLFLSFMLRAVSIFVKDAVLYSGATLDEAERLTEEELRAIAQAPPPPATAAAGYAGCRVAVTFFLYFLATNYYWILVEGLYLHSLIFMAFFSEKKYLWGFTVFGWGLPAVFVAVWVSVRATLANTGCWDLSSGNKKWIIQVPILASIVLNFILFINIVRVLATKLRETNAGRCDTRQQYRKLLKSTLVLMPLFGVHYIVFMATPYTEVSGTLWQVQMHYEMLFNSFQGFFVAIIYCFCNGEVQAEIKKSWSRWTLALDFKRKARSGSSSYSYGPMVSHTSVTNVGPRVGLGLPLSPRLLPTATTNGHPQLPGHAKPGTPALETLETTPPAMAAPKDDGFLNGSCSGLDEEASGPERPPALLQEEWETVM
Particulars: literature; cited from earlier work.

Where two headings read alike, the source gives them in different places.

In general, EC50 refers to the midpoint of the concentration-response curve. Turning to `CC[C@H](C)[C@H](NC(=O)[C@H](CCC(=O)O)NC(=O)[C@H](CO)NC(=O)[C@@H](NC(=O)[C@@H](N)CO)C(C)C)C(=O)N[C@@H](CCC(N)=O)C(=O)N[C@@H](CC(C)C)C(=O)N[C@@H](CCSC)C(=O)N[C@@H](Cc1c[nH]cn1)C(=O)N[C@@H](CC(N)=O)C(=O)N[C@@H](CC(C)C)C(=O)NCC(=O)N[C@@H](CCCCN)C(=O)N[C@@H](Cc1c[nH]cn1)C(=O)N[C@@H](CC(C)C)C(=O)N[C@@H](CC(N)=O)C(=O)N[C@@H](CO)C(=O)N[C@@H](CCSC)C(=O)N[C@@H](CCC(=O)O)C(=O)N[C@@H](CCCNC(=N)N)C(=O)N[C@H](C(=O)N[C@@H](CCC(=O)O)C(=O)N[C@@H](Cc1c[nH]c2ccccc12)C(=O)N[C@@H](CC(C)C)C(=O)N[C@@H](CCCNC(=N)N)C(=O)N[C@@H](CCCCN)C(=O)N[C@@H](CCCCN)C(=O)N[C@@H](CC(C)C)C(=O)N[C@@H](CCC(N)=O)C(=O)N[C@@H](CC(=O)O)C(=O)N[C@H](C(=O)N[C@@H](Cc1c[nH]cn1)C(=O)N[C@@H](CC(N)=O)C(=O)N[C@@H](Cc1ccccc1)C(=O)O)C(C)C)C(C)C` [synthetic PTH(1-34)], in experiment [1], the half-maximal binding result was “about 1 nM”. Besides, the “half-maximum value of binding” value in experiment [2] is recorded as “about 2 nM”. For the same molecule, the figures for the EC50 in experiment [3] and in experiment [4] were around 4 nM and around 0.1 nM, respectively.
Consider “PTH (3-34): synthetic analog of bovine PTH, recognized PTH antagonist (SEIQFMHNLGKHLSSMERVEWLRKKLQDVHNF; Parathyroid hormone; UniProt P01268 34-65, looked up, fragment)”, for which, in experiment [5], the “PTH antagonist activity in vitro” value was “potent PTH antagonist”.
Regarding “human parathyroid hormone 1-84 [recombinant hPTH(1-84)]”, the half-maximal binding result in experiment [1] was “about 3 nM”. Further, the “half-maximum value of binding” value in experiment [2] was “about 10 nM”. Moreover, the EC50 in experiment [3] (opossum kidney cells, FIG. 5, read-out: EC50 of cyclic AMP stimulation) is around 10 nM; in experiment [4], around 3 nM.

(Values after USRE37919E1, “Recombinant DNA method for production of parathyroid hormone” (The General Hospital Corporation, priority 1989, dated 2002).)
